Laboratory results: ChEMBL document CHEMBL1201862, “PubChem BioAssay data set” (2004)
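A five-concentration, 48-hour dose response in 96-well plates underlies each endpoint, interpolated linearly between surrounding concentrations. GI50 is the concentration that inhibits growth by half.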 Activity calls are given as the source filed them. Cut-off read from the data, not from the text of the source: active = GI50 up to about 1.1 µM and inactive = higher.

Columns and labels:
Test in all cases: DTP human tumour cell line panel, 48 h
[1] = system: 786-0
[2] = system: A498
[3] = system: A549
[4] = system: ACHN
[5] = system: BT-549
[6] = system: CAKI-1
[7] = system: CCRF-CEM
[8] = system: DU-145
[9] = system: EKVX
[10] = system: HCC 2998
[11] = system: HCT-116
[12] = system: HCT-15
[13] = system: HOP-62
[14] = system: HOP-92
[15] = system: HT-29
[16] = system: Hs-578T
[17] = system: IGROV-1
[18] = system: K562
[19] = system: KM12
[20] = system: LOX IMVI
[21] = system: M14
[22] = system: MDA-MB-231
[23] = system: MDA-MB-435
[24] = system: MDA-N
[25] = system: MOLT-4
[26] = system: Malme-3M
[27] = system: NCI-H226
[28] = system: NCI-H23
[29] = system: NCI-H460
[30] = system: NCI-H522
[31] = system: NCI/ADR-RES
[32] = system: OVCAR-3
[33] = system: OVCAR-4
[34] = system: OVCAR-5
[35] = system: OVCAR-8
[36] = system: PC-3
[37] = system: RXF 393
[38] = system: SF-268
[39] = system: SF-295
[40] = system: SK-MEL-28
[41] = system: SK-MEL-2
[42] = system: SK-MEL-5
[43] = system: SN12C
[44] = system: SNB-19
[45] = system: SNB-75
[46] = system: SR
[47] = system: SW-620
[48] = system: T47D
[49] = system: TK-10
[50] = system: U-251
[51] = system: UACC-257
[52] = system: UACC-62
[53] = system: UO-31

Structure (SMILES): CC(CO)(CO)Nc1ncnc2ccccc12
- GI50 [1]: > 100 µM (inactive)
- GI50 [2]: > 100 µM (inactive)
- GI50 [3]: > 100 µM (inactive)
- GI50 [4]: > 100 µM (inactive)
- GI50 [5]: > 100 µM (inactive)
- GI50 [6]: > 100 µM (inactive)
- GI50 [7]: > 100 µM (inactive)
- GI50 [8]: > 100 µM (inactive)
- GI50 [9]: 66.8 µM (inactive)
- GI50 [10]: > 100 µM (inactive)
- GI50 [11]: > 100 µM (inactive)
- GI50 [12]: > 100 µM
- GI50 [13]: > 100 µM (inactive)
- GI50 [14]: > 100 µM (inactive)
- GI50 [15]: > 100 µM (inactive)
- GI50 [16]: > 100 µM (inactive)
- GI50 [17]: > 100 µM (inactive)
- GI50 [18]: > 100 µM (inactive)
- GI50 [19]: > 100 µM (inactive)
- GI50 [20]: > 100 µM (inactive)
- GI50 [21]: > 100 µM (inactive)
- GI50 [22]: > 100 µM (inactive)
- GI50 [23]: > 100 µM (inactive)
- GI50 [24]: > 100 µM (inactive)
- GI50 [25]: > 100 µM (inactive)
- GI50 [26]: > 100 µM (inactive)
- GI50 [27]: > 100 µM (inactive)
- GI50 [28]: > 100 µM (inactive)
- GI50 [29]: > 100 µM (inactive)
- GI50 [30]: > 100 µM (inactive)
- GI50 [31]: > 100 µM (inactive)
- GI50 [32]: > 100 µM (inactive)
- GI50 [33]: > 100 µM (inactive)
- GI50 [34]: > 100 µM (inactive)
- GI50 [35]: > 100 µM (inactive)
- GI50 [36]: > 100 µM (inactive)
- GI50 [37]: > 100 µM (inactive)
- GI50 [38]: > 100 µM (inactive)
- GI50 [39]: > 100 µM (inactive)
- GI50 [40]: > 100 µM (inactive)
- GI50 [41]: > 100 µM (inactive)
- GI50 [42]: 50.1 µM (inactive)
- GI50 [43]: > 100 µM (inactive)
- GI50 [44]: > 100 µM (inactive)
- GI50 [45]: > 100 µM (inactive)
- GI50 [46]: 66.1 µM (inactive)
- GI50 [47]: > 100 µM (inactive)
- GI50 [48]: > 100 µM (inactive)
- GI50 [49]: > 100 µM (inactive)
- GI50 [50]: > 100 µM (inactive)
- GI50 [51]: > 100 µM (inactive)
- GI50 [52]: > 100 µM (inactive)
- GI50 [53]: > 100 µM (inactive)
